One test concerns SR. The test can be described thus: CCK-8 proliferation, SR. It counts as cell-based, Human. The conditions noted are these: Table B10, compounds designed based on the IRAK4 inhibitors, SR cells, read-out: Inhibitory activity (IC50, nM) on tumor cell proliferation, SR. A digest of the protocol:
(§1)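 CCK-8 viability readout; IC50 from growth-inhibition curve fitting. Cells plated, dosed 24h later with a 10-point series, top 10µM, 5-fold steps. Culture at 37°C, 5% CO2.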

In a further test the test system is MM.1S. The test can be described thus: CCK-8 proliferation, MM.1S. It counts as cell-based. The following applies: Table B10, compounds designed based on the IRAK4 inhibitors, MM.1S cells, read-out: Inhibitory activity (IC50, nM) on tumor cell proliferation, MM.1S. The method in brief: as §1
The subject of another test is Jurkat. As to the kind of experiment: CCK-8 proliferation, Jurkat. It counts as cell-based, Human. The protocol:
The tumor cells used herein were cultured in a cell culture medium listed in table A1 at 37°C in an incubator with 5% CO2. Prior to experimentation, all cell lines used were correctly identified by STR profiling, and tested negative for mycoplasma contamination using a mycoplasma detection kit through routine screenings. Table A1. Tumor cells and cell culture medium used in the present disclosure
IC50 values of the compounds of the present disclosure (including the compounds in Table 1, and compounds of examples) were measured using the Meilun Cell Counting Kit-8 kit from Dalian Meilun Biotech Co., Ltd. Assay details are as follows: tumor cells were seeded in a 96-well plate at a density listed in Table A2. After 24h, 100 µL of the inoculated cells were treated with 0.5µL of the compounds of the present disclosure (including the compounds in Tables 1 and 2, and compounds of examples) at 10 different successively decreasing concentrations (starting at the highest concentration of 10µM; 5-fold serial dilutions). After the cells were treated with the compounds of the present disclosure for a period of time, the cell viability detection reagent was added to the culture medium for cell viability assessment according to the instructions provided with the CCK-8 kit. […] The growth inhibition of the compounds of the present disclosure on cells was plotted by Prism Graphpad software, and the IC50 values of the compounds of the present disclosure were calculated therefrom. […] Seeding protocol and treatment time for tumor cells

For a further test, the system named is CCRF-CEM. The test can be described thus: CCK-8 proliferation, CCRF-CEM. It counts as cell-based, Human. The conditions noted are these: Homo sapiens, CCRF-CEM; CCK-8; 96 hours; read-out: Inhibitory activity (IC50) on tumor cell proliferation, CCRF-CEM. The method in brief: as §1
Test [1] addresses T1, human Cereblon WT GST-tagged protein (Homo sapiens, UniProt Q96SW2).
T1 construct: purchased CISBIO 64BDCRBNPEH
The test can be described thus: CRBN binding, HTRF (CEREBLON BINDING kit). The conditions noted are these: Table II-2, CRBN binding screening, HTRF; for inhibition at 0.5 µM: read-out: Inhibition rate (%) at 0.5µM; for inhibition at 2 µM: read-out: Inhibition rate (%) at 2 µM. The method in brief:
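Competitive HTRF: GST-tagged human WT Cereblon mixed with compound, Thalidomide-Re tracer and GST Eu antibody, incubated 3 h at room temperature. Signals read at 620 and 665 nm.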
(In TR-FRET formats the signal depends on donor and acceptor labels being close together.)

The target of another test is T2, RSK1 (Homo sapiens, UniProt Q15418).
T2 construct: evaluate the effects of the compounds of the present disclosure on the expression of target proteins in cells; endogenous in cells; host or cells: hPBMC
T2 sequence (Q15418 whole entry): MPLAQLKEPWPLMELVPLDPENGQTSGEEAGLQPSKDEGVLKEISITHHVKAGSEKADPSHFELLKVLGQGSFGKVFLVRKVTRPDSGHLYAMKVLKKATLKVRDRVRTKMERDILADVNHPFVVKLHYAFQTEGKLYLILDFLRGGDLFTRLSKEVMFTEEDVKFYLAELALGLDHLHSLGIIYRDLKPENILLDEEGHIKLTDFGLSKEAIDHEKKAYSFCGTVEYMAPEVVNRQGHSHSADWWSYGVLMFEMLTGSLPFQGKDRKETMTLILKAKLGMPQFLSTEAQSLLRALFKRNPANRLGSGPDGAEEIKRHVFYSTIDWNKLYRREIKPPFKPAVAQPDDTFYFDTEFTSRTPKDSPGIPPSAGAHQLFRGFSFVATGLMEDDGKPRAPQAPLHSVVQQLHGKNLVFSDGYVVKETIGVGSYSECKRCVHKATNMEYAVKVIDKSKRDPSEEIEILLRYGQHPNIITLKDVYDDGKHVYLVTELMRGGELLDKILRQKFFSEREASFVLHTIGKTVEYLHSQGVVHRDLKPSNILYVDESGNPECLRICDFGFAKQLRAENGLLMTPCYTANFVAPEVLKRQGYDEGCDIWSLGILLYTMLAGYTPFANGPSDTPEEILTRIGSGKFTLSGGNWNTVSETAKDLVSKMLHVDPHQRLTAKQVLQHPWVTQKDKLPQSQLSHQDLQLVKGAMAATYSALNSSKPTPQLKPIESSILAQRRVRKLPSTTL
The test can be described thus: Western blot degradation of RSK1 (hPBMC). It counts as cell-based. The conditions noted are these: Table D8. The method in brief:
(§2)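 Degradation is assessed by immunoblotting lysates of treated cells. Target bands are quantified by grayscale and normalised to an internal control, so degradation rate equals 100% minus % remaining.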
(In general: Immunoblotting shows a protein as a band on a membrane.)

A further test concerns the target T3, RSK2 (Homo sapiens, UniProt P51812).
T3 construct: evaluate the effects of the compounds of the present disclosure on the expression of target proteins in cells; endogenous in cells; host or cells: hPBMC
As to the kind of experiment: Western blot degradation of RSK2 (hPBMC). The following applies: Table D8. It counts as cell-based. The method in brief: as §2

The mark [2] stands for this setting: Homo sapiens, Jurkat, CCK-8, 96 hours, read-out: Inhibitory activity (IC50) on tumor cell proliferation, Jurkat.

Like-named read-outs stand apart in the source and are kept apart here.

The text below walks through data of patent EP4678638A1, “NEW E3 UBIQUITIN LIGASE LIGAND, PROTEIN DEGRADATION AGENT AND USE THEREOF” (priority 2023, dated 2024).

One may read the inhibition as the percentage by which the read-out fell short of the control.

T1 sequence (Q96SW2 whole entry): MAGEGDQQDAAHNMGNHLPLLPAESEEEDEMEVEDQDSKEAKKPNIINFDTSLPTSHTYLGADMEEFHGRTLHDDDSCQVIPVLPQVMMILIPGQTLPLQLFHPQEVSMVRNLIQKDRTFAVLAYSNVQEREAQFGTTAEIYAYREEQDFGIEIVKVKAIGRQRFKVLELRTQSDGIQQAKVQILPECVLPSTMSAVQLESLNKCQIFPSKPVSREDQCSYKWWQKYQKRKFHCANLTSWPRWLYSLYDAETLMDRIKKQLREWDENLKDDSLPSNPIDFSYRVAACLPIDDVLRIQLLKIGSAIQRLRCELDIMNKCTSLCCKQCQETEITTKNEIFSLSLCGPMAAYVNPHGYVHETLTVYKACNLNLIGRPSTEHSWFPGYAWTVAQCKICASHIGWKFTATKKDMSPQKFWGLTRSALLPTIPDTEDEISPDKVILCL
T3 sequence (P51812 whole entry): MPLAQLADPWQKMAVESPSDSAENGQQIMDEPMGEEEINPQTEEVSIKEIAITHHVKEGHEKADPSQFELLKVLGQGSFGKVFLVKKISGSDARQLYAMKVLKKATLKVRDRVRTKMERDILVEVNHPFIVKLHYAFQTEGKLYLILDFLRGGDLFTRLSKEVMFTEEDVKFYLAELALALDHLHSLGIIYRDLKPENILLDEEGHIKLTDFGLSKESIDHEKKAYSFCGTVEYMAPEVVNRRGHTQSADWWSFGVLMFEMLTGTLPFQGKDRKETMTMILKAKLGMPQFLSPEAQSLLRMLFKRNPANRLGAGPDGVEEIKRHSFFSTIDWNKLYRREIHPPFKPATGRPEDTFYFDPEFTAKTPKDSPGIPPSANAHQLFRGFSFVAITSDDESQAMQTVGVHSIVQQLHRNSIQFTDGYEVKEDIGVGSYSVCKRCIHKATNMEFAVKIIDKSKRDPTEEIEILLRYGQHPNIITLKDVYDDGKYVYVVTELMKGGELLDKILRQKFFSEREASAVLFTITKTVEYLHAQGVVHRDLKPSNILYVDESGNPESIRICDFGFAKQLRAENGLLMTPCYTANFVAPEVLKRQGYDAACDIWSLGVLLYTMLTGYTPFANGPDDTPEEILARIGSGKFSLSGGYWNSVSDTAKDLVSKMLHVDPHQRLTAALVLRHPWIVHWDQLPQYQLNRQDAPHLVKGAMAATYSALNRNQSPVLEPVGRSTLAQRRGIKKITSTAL

For `O=C1CCC(c2ccc(CN3CCC(N4CCN(c5ccc6c(c5)nc(NC(=O)c5cccc(C(F)(F)F)c5)n6[C@H]5CC[C@@H](CO)CC5)CC4)CC3)cc2)C(=O)N1` (stereo partly drawn) [GT-05020, N-(5-(4-(1-(4-(2,6-dioxopiperidin-3-yl)benzyl)piperidin-4-yl)piperazin-1-yl)-1-((1s,4s)-4-(hydroxymethyl)cyclohexyl) -1H-benzo[d]imidazol-2-yl)-3-(trifluoromethyl)benzamide], the IC50 in the test on SR (Homo sapiens) is 500 to 1000 nM; with MM.1S (Homo sapiens, MM1.S), 500 to 1000 nM; in the test on Jurkat (Homo sapiens, Table B10, compounds designed based on the IRAK4 inhibitors, Jurkat cells, read-out: Inhibitory activity (IC50, nM) on tumor cell proliferation, Jurkat) it was 500 to 1000 nM.
`O=C1CCN(c2ccc(CN3CCC(N4CCN(c5ccc6c(c5)nc(NC(=O)c5cccc(C(F)(F)F)c5)n6[C@H]5CC[C@@H](CO)CC5)CC4)CC3)cn2)C(=O)N1` [GT-05025, N-(5-(4-(1-((6-(2,4-dioxotetrahydropyrimidin-1(2H)-yl)pyridin-3-yl)methyl)piperidin-4-yl)piperazin-1-yl)-1-((1s,4s)-4-(hydroxymethyl)cyclohexyl) -1H-benzo[d]imidazol-2-yl)-3-(trifluoromethyl)benzamide]: the IC50 with SR lay in the range of 500 to 1000 nM; in the test with MM.1S it was 500 to 1000 nM; with Jurkat (Table B10, compounds designed based on the IRAK4 inhibitors, Jurkat cells, read-out: Inhibitory activity (IC50, nM) on tumor cell proliferation, Jurkat), 500 to 1000 nM.
As to `CC1(C)CCC(c2ccc(Cl)cc2)=C(CN2CCN(c3ccc(C(=O)NS(=O)(=O)c4ccc(N[C@H](CCN5CCN(Cc6cc(N7CCC(=O)NC7=O)ncc6F)CC5)CSc5ccccc5)c(S(=O)(=O)C(F)(F)F)c4)cc3)CC2)C1` [GT-07716, (R)-4-(4-((4'-chloro-4,4-dimethyl-3,4,5,6-tetrahydro-[1,1'-biphenyl]-2-yl)methyl)piperazin-1-yl)-N-((4-((4-(4-((2-(2,4-dioxotetrahydropyrimidin-1(2H)-yl)-5-fluoropyridin-4-yl)methyl)piperazin-1-yl)-1-(phenylthio)butan-2-yl)amino)-3-((trifluoromethyl)sulfonyl)phenyl)sulfonyl)benzamide], the values for the IC50 in the test on CCRF-CEM and with Jurkat (setting [2]) were 10 to 50 nM and 50 to 100 nM, respectively.
Take `CC1(C)CCC(c2ccc(Cl)cc2)=C(CN2CCN(c3ccc(C(=O)NS(=O)(=O)c4ccc(N[C@H](CCN5CCN(Cc6ccnc(N7CCC(=O)NC7=O)c6)CC5)CSc5ccccc5)c(S(=O)(=O)C(F)(F)F)c4)cc3)CC2)C1` [GT-07717, (R)-4-(4-((4'-chloro-4,4-dimethyl-3,4,5,6-tetrahydro-[1,1'-biphenyl]-2-yl)methyl)piperazin-1-yl)-N-((4-((4-(4-((2-(2,4-dioxotetrahydropyrimidin-1(2H)-yl)pyridin-4-yl)methyl)piperazin-1-yl)-1-(phenylthio)butan-2-yl)amino)-3-((trifluoromethyl)sulfonyl)phenyl)sulfonyl)benzamide]: the IC50 in the test with CCRF-CEM and in the test on Jurkat (setting [2]) was 10 to 50 nM in each case.
For the molecule `C[C@@H]1CNC(=O)c2cc3ccc(C(=O)Nc4cnn(Cc5ccc(N6CCC(N7CCN(Cc8cccc(N9CCC(=O)NC9=O)c8)CC7)CC6)cc5)c4)nc3n21` [GT-07953, (R)-N-(1-(4-(4-(4-(3-(2,4-dioxotetrahydropyrimidin-1(2H)-yl)benzyl)piperazin-1-yl)piperidin-1-yl)benzyl)-1H-pyrazol-4-yl)-9-methyl-6-oxo-6,7,8,9-tetrahydropyrido[3',2':4,5]pyrrolo[1,2-a]pyrazine-2-carboxamide], in test [1], the inhibition at 0.5 µM was in the range of 20 to 30% and the inhibition at 2 µM lay within 53 to 60%. In addition, at RSK1, the “Degradation of substrate protein RSK1 (substrate protein remaining %)” value was “A (A is defined as 0% ≤ substrate protein remaining % ≤ 80%)”. In addition, the “Degradation of substrate protein RSK2 (substrate protein remaining %)” value at RSK2 is reported as “A (A is defined as 0% ≤ substrate protein remaining % ≤ 80%)”.
Regarding `C[C@@H]1CNC(=O)c2cc3ccc(C(=O)Nc4cnn(Cc5ccc(N6CCC(N7CCN(Cc8ccc(N9CCC(=O)NC9=O)cn8)CC7)CC6)cc5)c4)nc3n21` [GT-07954, (R)-N-(1-(4-(4-(4-((5-(2,4-dioxotetrahydropyrimidin-1(2H)-yl)pyridin-2-yl)methyl)piperazin-1-yl)piperidin-1-yl)benzyl)-1H-pyrazol-4-yl)-9-methyl-6-oxo-6,7,8,9-tetrahydropyrido[3',2':4,5]pyrrolo[1,2-a]pyrazine-2-carboxamide], in test [1], the inhibition at 0.5 µM was in the range of 60 to 80% and the inhibition at 2 µM lay in the range of 80 to 100%. For the same molecule, the “Degradation of substrate protein RSK1 (substrate protein remaining %)” value on RSK1 is reported as “A (A is defined as 0% ≤ substrate protein remaining % ≤ 80%)”. At RSK2, the “Degradation of substrate protein RSK2 (substrate protein remaining %)” value was “A (A is defined as 0% ≤ substrate protein remaining % ≤ 80%)”.
For `C[C@@H]1CNC(=O)c2cc3ccc(C(=O)Nc4cnn(Cc5ccc(N6CCC(N7CCN(Cc8cc(C9CCC(=O)NC9=O)cnc8F)CC7)CC6)cc5)c4)nc3n21` (stereo partly drawn) [GT-07960, (9R)-N-(1-(4-(4-(4-((5-(2,6-dioxopiperidin-3-yl)-2-fluoropyridin-3-yl)methyl)piperazin-1-yl)piperidin-1-yl)benzyl)-1H-pyrazol-4-yl)-9-methyl-6-oxo-6,7,8,9-tetrahydropyrido[3',2':4,5]pyrrolo[1,2-a]pyrazine-2-carboxamide], in test [1], the inhibition at 0.5 µM fell in the range of 30 to 40% and the inhibition at 2 µM fell in the range of 53 to 60%. In addition, at RSK1, the “Degradation of substrate protein RSK1 (substrate protein remaining %)” value is “A (A is defined as 0% ≤ substrate protein remaining % ≤ 80%)”. Also, on RSK2, the “Degradation of substrate protein RSK2 (substrate protein remaining %)” value was “B (B is defined as substrate protein remaining % > 80%)”.
Turning to `C[C@@H]1CNC(=O)c2cc3ccc(C(=O)Nc4cnn(Cc5ccc(N6CCC(N7CCN(Cc8cncc(C9CCC(=O)NC9=O)c8)CC7)CC6)cc5)c4)nc3n21` (stereo partly drawn) [GT-07961, (9R)-N-(1-(4-(4-(4-((5-(2,6-dioxopiperidin-3-yl)pyridin-3-yl)methyl)piperazin-1-yl)piperidin-1-yl)benzyl)-1H-pyrazol-4-yl)-9-methyl-6-oxo-6,7,8,9-tetrahydropyrido[3',2':4,5]pyrrolo[1,2-a]pyrazine-2-carboxamide], in test [1], the inhibition at 0.5 µM is 20 to 30% and the inhibition at 2 µM fell in the range of 60 to 80%. Also, on RSK1, the “Degradation of substrate protein RSK1 (substrate protein remaining %)” value was “A (A is defined as 0% ≤ substrate protein remaining % ≤ 80%)”. For the same molecule, the “Degradation of substrate protein RSK2 (substrate protein remaining %)” value on RSK2 was “A (A is defined as 0% ≤ substrate protein remaining % ≤ 80%)”.
Turning to `C[C@@H]1CNC(=O)c2cc3ccc(C(=O)Nc4cnn(Cc5ccc(N6CCC(N7CCN(Cc8cc(N9CCC(=O)NC9=O)cnc8F)CC7)CC6)cc5)c4)nc3n21` [GT-07962, (R)-N-(1-(4-(4-(4-((5-(2,4-dioxotetrahydropyrimidin-1(2H)-yl)-2-fluoropyridin-3-yl)methyl)piperazin-1-yl)piperidin-1-yl)benzyl)-1H-pyrazol-4-yl)-9-methyl-6-oxo-6,7,8,9-tetrahydropyrido[3',2':4,5]pyrrolo[1,2-a]pyrazine-2-carboxamide], in test [1], the inhibition at 0.5 µM lay in the range of 20 to 30% and the inhibition at 2 µM fell in the range of 53 to 60%. Further, the “Degradation of substrate protein RSK1 (substrate protein remaining %)” value on RSK1 was “A (A is defined as 0% ≤ substrate protein remaining % ≤ 80%)”. Moreover, on RSK2, the “Degradation of substrate protein RSK2 (substrate protein remaining %)” value is recorded as “A (A is defined as 0% ≤ substrate protein remaining % ≤ 80%)”.
